Source: publication PMC6437269, “OXA-48-Mediated Ceftazidime-Avibactam Resistance Is Associated with Evolutionary Trade-Offs” (mSphere, 2019)
Converted amounts (≈) assume the structure as drawn. Where two headings read alike, the source gives them in different places.

Assays:
[1] = target: T1, OXA-48:P68A (Klebsiella pneumoniae, UniProt Q6XEC0, P68A); experiment: Steady-state enzyme kinetics, OXA-48:P68A; type: biochemical; settings: for kcat / Km: substrate hydrolysis, 25°C, pH 7.0, error = 95% CI
[2] = target: T1, OXA-48:P68A; experiment: IC50 with nitrocefin as reporter substrate, OXA-48:P68A; type: biochemical; settings: P68A compared to native OXA-48
[3] = tested on: E. coli MG1655 (MP100); experiment: microbe, parasite or virus in culture; type: cell-based, Escherichia coli
Description: (§1) For MIC determination, single colonies were suspended in 0.9% saline buffer to a 0.5 McFarland standard and further diluted 1:100 in MH broth. Fifty microliters of the bacterial suspension was loaded onto in-house-designed and premade Sensititre microtiter plates (TREK Diagnostic Systems/Thermo Fisher Scientific, East Grinstead, United Kingdom). The plates were incubated for 20 h at 37°C. Antibiotic susceptibility testing was performed in duplicates.

[4] = tested on: MP101 (MP100 transformed with p50579417_3_OXA-48); experiment: MIC determination, MP101 (MG1655 with native OXA-48 plasmid); type: cell-based, Escherichia coli
From the text: Mueller-Hinton (MH) agar and broth were purchased from Thermo Fisher Scientific (East Grinstead, United Kingdom). Luria-Bertani (LB) broth, LB agar, ampicillin, amoxicillin, cefepime, CAZ, imipenem, meropenem, piperacillin, and tazobactam were obtained from Sigma-Aldrich (St. Louis, MO). Nitrocefin was purchased from Merck (Darmstadt, Germany). The characteristics of the clinical E. coli strain 50579417 harboring the OXA-48 plasmid (p50579417_3_OXA-48) have been described previously ([61], [62]). The plasmid p50579417_3_OXA-48 was conjugated into rifampin-resistant E. coli TOP10 and subsequently isolated using a plasmid mini-purification kit (Qiagen, Germany). E. coli MG1655 (DA4201) was electroporated with p50579417_3_OXA-48 as published previously ([63]). Transformants positive for blaOXA-48 were checked by PCR using REDTaq ready mix (Sigma-Aldrich, St. Louis, MO) and preOXA-48 primers ([61]).
as §1

[5] = tested on: MP103 (MP101 subjected to CAZ-AVI); experiment: MIC determination, MP103 (MP101 selected on CAZ-AVI); type: cell-based, Escherichia coli
Description: (§2) Ten milliliters of an MP101 culture was grown in MH broth at 37°C overnight and then centrifuged for 10 min at 4,000 × g, and the pellet was suspended in 1 ml MH broth. One hundred microliters was plated on MH agar containing increasing concentrations of either CAZ alone or in combination with AVI up to 2 mg/liter. For CAZ-AVI, we utilized the clinical ratio of 4:1, respectively. Colonies growing on the highest concentration were recovered and grown in a fresh overnight culture (MH broth) and subsequently plated on concentrations of CAZ or CAZ-AVI up to 32 mg/liter.
as §1

[6] = tested on: MP104 (E. coli TOP10 expressing native OXA-48); experiment: MIC determination, TOP10 expressing native OXA-48 (MP104); type: cell-based; settings: Escherichia coli; Table 3; MP104, native OXA-48 in pCR-blunt II TOPO
Description: as §1
For a functional resistance profile, the native and mutated blaOXA-48 genes were cloned in the pCR-blunt II-TOPO vector (Invitrogen, CA) and expressed in E. coli TOP10 (Invitrogen, CA). The PCR product was obtained by Phusion High Fidelity PCR mastermix with High Fidelity buffer (New England Biolabs, MA) and preOXA-48 primers ([61]). Transformants were selected on LB agar plates containing 50 or 100 mg/liter ampicillin. Insertion size was verified by Sanger sequencing using M13 forward (5′-[…]-3′) and reverse (5′-[…]-3′) primers.

[7] = tested on: MP107 (MP100 transformed with p50579417_3_OXA-48-CAZ); experiment: MIC determination, MP107 (MG1655 with CAZ-adapted plasmid); type: cell-based; settings: Escherichia coli; Table 6; MP107, adapted plasmid p50579417-OXA-48-CAZ
Description: as §1

[8] = tested on: E. coli TOP10; experiment: microbe, parasite or virus in culture; type: cell-based; settings: Escherichia coli, Table 3, read-out: MIC
Description: as §1

[9] = tested on: MP105 (E. coli TOP10 expressing OXA-48:P68A); experiment: microbe, parasite or virus in culture; type: cell-based; settings: for MIC: Escherichia coli, Table 3, MP105, OXA-48:P68A in pCR-blunt II TOPO
[10] = tested on: MP108 (MP100 transformed with p50579417_3_OXA-48-CAZ-AVI); experiment: MIC determination, MP108 (MG1655 with CAZ-AVI-adapted plasmid); type: cell-based; settings: Escherichia coli; Table 6; MP108, adapted plasmid p50579417-OXA-48-CAZ-AVI
Description: as §1

[11] = tested on: MP102 (MP101 subjected to CAZ); experiment: MIC determination, MP102 (MP101 selected on CAZ); type: cell-based, Escherichia coli
Description: as §2, §1

[12] = Escherichia coli, MG1655, Table 6, MP100, read-out: MIC
[13] = Escherichia coli, Table 6, MP101, native plasmid, read-out: MIC

T1 sequence (Q6XEC0 23-265 P68A): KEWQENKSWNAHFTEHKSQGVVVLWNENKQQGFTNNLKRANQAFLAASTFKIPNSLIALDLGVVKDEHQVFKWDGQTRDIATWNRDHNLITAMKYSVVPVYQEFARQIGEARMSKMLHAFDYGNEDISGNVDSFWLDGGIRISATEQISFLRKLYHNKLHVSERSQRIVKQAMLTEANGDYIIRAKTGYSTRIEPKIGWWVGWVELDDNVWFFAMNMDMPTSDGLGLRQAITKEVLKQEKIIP

SMILES | kcat [1] | MIC [6] | MIC [7] | MIC [8] | MIC [9] | MIC [10] | MIC [3, 12] | MIC [4, 13] | other results
CC1(C)S[C@@H]2[C@H](NC(=O)[C@H](N)c3ccccc3)C(=O)N2[C@H]1C(=O)O [AMP, ampicillin] | 25 ± 1 s⁻¹ |  |  |  |  |  |  |  | Km ([1]; read-out: Km): 77 ± 12 µM
NC(=O)[C@@H]1CC[C@@H]2CN1C(=O)N2OS(=O)(=O)O [Avibactam, avibactam] |  |  |  |  |  |  |  |  | change in the inhibitory activity [2]: no change
CC(C)(O/N=C(\C(=O)N[C@@H]1C(=O)N2C(C(=O)[O-])=C(C[n+]3ccccc3)CS[C@H]12)c1csc(N)n1)C(=O)O [CAZ, ceftazidime] | 26 ± 3 s⁻¹ | 0.5 µg/mL (≈ 0.915 µM) | 16 µg/mL (≈ 29.3 µM) | 1 µg/mL (≈ 1.83 µM) | 16 µg/mL (≈ 29.3 µM) | 32 µg/mL (≈ 58.5 µM) |  |  | MIC ([3]; Escherichia coli, MG1655, Table 2, strain MP100, duplicates, read-out: MIC): 0.25 µg/mL (≈ 0.457 µM); MIC ([3]; Table 6, MP100): 0.25 µg/mL (≈ 0.457 µM); MIC ([4]; Escherichia coli, Table 2, strain MP101, duplicates, read-out: MIC): 0.25 µg/mL (≈ 0.457 µM); MIC ([4]; Table 6, MP101, native plasmid): 0.25 µg/mL (≈ 0.457 µM); MIC ([5]; Escherichia coli, Table 2, strain MP103, after two-step CAZ-AVI selection): 32 µg/mL; MIC increase after CAZ-AVI selection ([5]; MP103 versus MP101): 128 fold; MIC increase by P68A substitution ([9]; MP105 versus native OXA-48 (MP104)): 32 fold; increased catalytic efficiency (kcat/Km) ([1]; P68A compared to native OXA-48): > 10 fold; Km [1]: 220 ± 50 µM; MIC ([11]; Escherichia coli, Table 2, strain MP102, after two-step CAZ selection): 32 µg/mL; MIC increase after CAZ selection ([11]; MP102 versus MP101): 128 fold
CO/N=C(\C(=O)N[C@@H]1C(=O)N2C(C(=O)O)=C(COC(N)=O)CS[C@H]12)c1ccco1 [CXM, cefuroxime] |  | 16 µg/mL (≈ 37.7 µM) | 16 µg/mL (≈ 37.7 µM) | 16 µg/mL (≈ 37.7 µM) | 16 µg/mL (≈ 37.7 µM) | 8 µg/mL (≈ 18.9 µM) | 8 µg/mL (≈ 18.9 µM) | 16 µg/mL (≈ 37.7 µM) | 
C[C@@H](O)[C@H]1C(=O)N2C(C(=O)O)=C(S[C@@H]3CN[C@H](CNS(N)(=O)=O)C3)[C@H](C)[C@H]12 [DOR, doripenem] |  | 0.03 µg/mL (≈ 0.0713 µM) | 0.03 µg/mL (≈ 0.0713 µM) | 0.03 µg/mL (≈ 0.0713 µM) | 0.03 µg/mL (≈ 0.0713 µM) | 0.03 µg/mL (≈ 0.0713 µM) | 0.015 µg/mL (≈ 0.0357 µM) | 0.03 µg/mL (≈ 0.0713 µM) | 
C[C@@H](O)[C@H]1C(=O)N2C(C(=O)O)=C(S[C@@H]3CN[C@H](C(=O)Nc4cccc(C(=O)O)c4)C3)[C@H](C)[C@H]12 [ETP, ertapenem] |  | 1 µg/mL (≈ 2.1 µM) | 0.25 µg/mL (≈ 0.526 µM) | 0.015 µg/mL (≈ 0.0315 µM) | 0.06 µg/mL (≈ 0.126 µM) | 0.12 µg/mL (≈ 0.252 µM) | 0.015 µg/mL (≈ 0.0315 µM) | 1 µg/mL (≈ 2.1 µM) | 
CO/N=C(\C(=O)N[C@@H]1C(=O)N2C(C(=O)[O-])=C(C[N+]3(C)CCCC3)CS[C@H]12)c1csc(N)n1 [FEP, cefepime] | 0.5 ± 0.1 s⁻¹ | 0.12 µg/mL (≈ 0.25 µM) | 0.5 µg/mL (≈ 1.04 µM) | 0.06 µg/mL (≈ 0.125 µM) | 0.25 µg/mL (≈ 0.52 µM) | 0.25 µg/mL (≈ 0.52 µM) | 0.06 µg/mL (≈ 0.125 µM) | 0.25 µg/mL (≈ 0.52 µM) | Km [1]: 462 ± 126 µM
